Test results published in ChEMBL document CHEMBL1201862, “PubChem BioAssay data set” (2004).
Activity calls are given as the source filed them.

Experiments:
Fatty acid synthase [1] = molecular target: T1, Fatty acid synthase (Homo sapiens, UniProt P49327); test: FAS thioesterase domain inhibitors, dose response, biochemical, endpoint fluorescence intensity, uHTS hits (AID 624327); assay type: functional;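 further: fluorescence from hydrolysis of an O-methyl fluorescein acyl ester substrate by the enzyme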
T1 sequence (P49327 whole entry, the tested form may be a part): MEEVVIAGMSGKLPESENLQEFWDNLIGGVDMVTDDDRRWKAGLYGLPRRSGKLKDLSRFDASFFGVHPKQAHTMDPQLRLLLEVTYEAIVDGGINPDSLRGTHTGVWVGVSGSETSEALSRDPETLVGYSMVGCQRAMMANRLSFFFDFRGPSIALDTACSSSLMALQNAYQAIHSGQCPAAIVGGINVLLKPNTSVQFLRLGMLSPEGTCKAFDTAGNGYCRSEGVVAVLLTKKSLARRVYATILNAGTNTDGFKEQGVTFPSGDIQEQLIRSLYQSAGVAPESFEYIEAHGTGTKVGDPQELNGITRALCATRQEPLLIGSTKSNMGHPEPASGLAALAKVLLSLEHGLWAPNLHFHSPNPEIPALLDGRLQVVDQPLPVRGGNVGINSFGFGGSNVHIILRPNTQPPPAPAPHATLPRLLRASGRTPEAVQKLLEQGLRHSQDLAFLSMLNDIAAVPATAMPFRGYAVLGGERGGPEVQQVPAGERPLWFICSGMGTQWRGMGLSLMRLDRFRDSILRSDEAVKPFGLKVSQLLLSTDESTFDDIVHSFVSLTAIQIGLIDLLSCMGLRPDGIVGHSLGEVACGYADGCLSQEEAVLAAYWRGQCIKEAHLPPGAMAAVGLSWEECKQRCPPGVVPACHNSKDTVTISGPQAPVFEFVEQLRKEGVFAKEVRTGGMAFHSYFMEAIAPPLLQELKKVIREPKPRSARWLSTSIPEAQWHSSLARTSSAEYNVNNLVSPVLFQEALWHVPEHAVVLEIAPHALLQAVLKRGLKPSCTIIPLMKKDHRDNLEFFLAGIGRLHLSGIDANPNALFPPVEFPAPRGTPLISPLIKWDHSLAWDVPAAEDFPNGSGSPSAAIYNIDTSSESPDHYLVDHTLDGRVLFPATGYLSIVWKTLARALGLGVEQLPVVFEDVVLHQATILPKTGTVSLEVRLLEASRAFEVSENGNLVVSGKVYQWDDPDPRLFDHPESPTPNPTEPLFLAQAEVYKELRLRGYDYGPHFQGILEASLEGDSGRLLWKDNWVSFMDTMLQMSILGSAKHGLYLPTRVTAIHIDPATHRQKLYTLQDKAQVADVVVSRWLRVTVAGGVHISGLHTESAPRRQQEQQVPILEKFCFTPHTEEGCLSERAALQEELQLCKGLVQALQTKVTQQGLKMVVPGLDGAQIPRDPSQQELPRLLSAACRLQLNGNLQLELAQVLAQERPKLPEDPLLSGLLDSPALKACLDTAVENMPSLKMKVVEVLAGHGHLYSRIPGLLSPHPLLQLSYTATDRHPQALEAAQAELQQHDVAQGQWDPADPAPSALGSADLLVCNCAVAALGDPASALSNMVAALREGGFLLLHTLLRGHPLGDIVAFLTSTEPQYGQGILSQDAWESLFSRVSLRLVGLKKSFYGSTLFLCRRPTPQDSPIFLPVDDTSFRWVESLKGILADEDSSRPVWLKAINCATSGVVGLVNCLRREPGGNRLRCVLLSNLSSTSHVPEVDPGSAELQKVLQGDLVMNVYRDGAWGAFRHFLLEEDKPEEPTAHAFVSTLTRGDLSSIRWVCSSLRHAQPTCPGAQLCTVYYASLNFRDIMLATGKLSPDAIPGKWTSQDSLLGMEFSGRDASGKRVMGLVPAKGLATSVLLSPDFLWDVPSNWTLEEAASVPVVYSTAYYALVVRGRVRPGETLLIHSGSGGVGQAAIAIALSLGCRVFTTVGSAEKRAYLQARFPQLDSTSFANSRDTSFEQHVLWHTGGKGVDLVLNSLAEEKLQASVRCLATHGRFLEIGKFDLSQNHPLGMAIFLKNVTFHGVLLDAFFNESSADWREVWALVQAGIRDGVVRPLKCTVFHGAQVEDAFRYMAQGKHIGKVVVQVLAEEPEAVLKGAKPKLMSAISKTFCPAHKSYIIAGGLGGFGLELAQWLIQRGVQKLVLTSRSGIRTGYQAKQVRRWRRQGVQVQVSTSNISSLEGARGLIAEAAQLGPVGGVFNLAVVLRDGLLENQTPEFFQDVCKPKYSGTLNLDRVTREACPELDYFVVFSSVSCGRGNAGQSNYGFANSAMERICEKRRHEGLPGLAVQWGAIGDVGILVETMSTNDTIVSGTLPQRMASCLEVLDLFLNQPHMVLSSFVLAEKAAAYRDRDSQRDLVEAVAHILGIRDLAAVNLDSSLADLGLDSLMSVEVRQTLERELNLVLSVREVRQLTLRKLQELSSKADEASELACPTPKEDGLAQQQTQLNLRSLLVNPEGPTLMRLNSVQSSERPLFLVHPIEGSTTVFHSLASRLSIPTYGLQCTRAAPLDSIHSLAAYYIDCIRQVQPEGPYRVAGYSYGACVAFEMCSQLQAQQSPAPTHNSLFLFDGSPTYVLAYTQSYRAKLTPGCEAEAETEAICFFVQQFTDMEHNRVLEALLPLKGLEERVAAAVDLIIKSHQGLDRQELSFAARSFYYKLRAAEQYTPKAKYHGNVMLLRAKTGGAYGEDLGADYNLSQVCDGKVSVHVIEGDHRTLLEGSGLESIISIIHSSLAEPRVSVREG

Fatty acid synthase [2] = molecular target: T1, Fatty acid synthase; test: FAS thioesterase domain inhibitors, dose response, biochemical, kinetic fluorescence intensity (AID 624326); assay type: functional;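 further: rate of fluorescence rise from hydrolysis of a fluorogenic O-methyl fluorescein ester substrate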
[3] = molecular target: T2, Sentrin-specific protease 7 (Homo sapiens, UniProt Q9BQF6); assay type: functional;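 further: Luminescence-based dose-response confirmation of ultra-high-throughput screening hits, measuring inhibition of SENP7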
T2 sequence (Q9BQF6 whole entry): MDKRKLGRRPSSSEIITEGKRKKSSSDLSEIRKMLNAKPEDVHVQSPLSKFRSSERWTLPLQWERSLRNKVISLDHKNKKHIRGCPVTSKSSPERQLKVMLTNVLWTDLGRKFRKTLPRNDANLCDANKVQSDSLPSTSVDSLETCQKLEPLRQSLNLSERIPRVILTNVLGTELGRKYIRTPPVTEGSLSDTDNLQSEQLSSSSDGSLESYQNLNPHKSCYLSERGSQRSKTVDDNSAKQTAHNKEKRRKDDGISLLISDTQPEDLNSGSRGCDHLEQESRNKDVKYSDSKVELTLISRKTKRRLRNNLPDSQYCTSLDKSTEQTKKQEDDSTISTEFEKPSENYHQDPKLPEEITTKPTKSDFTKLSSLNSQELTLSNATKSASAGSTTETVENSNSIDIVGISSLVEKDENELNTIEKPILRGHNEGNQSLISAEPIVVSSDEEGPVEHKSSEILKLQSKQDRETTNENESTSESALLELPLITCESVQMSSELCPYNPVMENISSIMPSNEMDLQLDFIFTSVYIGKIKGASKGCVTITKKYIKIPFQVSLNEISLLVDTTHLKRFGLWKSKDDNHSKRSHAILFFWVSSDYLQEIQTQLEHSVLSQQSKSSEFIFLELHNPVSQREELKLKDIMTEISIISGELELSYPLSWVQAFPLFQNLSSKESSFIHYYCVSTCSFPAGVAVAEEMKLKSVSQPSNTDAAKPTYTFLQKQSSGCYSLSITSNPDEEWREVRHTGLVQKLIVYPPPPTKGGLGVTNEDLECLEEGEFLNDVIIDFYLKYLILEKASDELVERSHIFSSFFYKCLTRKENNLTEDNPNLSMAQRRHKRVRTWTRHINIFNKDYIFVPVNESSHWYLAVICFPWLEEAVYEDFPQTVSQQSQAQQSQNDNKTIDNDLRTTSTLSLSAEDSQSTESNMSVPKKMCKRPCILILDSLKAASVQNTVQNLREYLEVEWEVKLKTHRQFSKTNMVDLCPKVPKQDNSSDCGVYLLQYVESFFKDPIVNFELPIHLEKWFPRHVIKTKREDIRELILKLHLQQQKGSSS

Caspase-3 = molecular target: T3, Caspase-3 (Homo sapiens, UniProt P42574); assay type: functional;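 further: Dose-response selectivity test against caspase-3 for candidate inhibitors of sentrin-specific proteases (SENPs)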
T3 sequence (P42574 whole entry): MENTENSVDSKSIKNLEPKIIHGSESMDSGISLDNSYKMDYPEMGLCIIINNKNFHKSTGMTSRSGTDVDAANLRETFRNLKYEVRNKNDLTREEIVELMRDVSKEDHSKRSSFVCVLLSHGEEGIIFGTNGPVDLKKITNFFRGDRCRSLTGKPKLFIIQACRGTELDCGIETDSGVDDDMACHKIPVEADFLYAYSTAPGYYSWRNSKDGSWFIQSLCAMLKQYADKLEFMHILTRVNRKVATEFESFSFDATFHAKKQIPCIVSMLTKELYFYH

[4] = molecular target: T4, Sentrin-specific protease 6 (Homo sapiens, UniProt Q9GZR1); assay type: functional;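 further: Luminescence-based dose-response confirmatory assay of SENP6 inhibition, following up an ultra-high-throughput screen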
T4 sequence (Q9GZR1 whole entry): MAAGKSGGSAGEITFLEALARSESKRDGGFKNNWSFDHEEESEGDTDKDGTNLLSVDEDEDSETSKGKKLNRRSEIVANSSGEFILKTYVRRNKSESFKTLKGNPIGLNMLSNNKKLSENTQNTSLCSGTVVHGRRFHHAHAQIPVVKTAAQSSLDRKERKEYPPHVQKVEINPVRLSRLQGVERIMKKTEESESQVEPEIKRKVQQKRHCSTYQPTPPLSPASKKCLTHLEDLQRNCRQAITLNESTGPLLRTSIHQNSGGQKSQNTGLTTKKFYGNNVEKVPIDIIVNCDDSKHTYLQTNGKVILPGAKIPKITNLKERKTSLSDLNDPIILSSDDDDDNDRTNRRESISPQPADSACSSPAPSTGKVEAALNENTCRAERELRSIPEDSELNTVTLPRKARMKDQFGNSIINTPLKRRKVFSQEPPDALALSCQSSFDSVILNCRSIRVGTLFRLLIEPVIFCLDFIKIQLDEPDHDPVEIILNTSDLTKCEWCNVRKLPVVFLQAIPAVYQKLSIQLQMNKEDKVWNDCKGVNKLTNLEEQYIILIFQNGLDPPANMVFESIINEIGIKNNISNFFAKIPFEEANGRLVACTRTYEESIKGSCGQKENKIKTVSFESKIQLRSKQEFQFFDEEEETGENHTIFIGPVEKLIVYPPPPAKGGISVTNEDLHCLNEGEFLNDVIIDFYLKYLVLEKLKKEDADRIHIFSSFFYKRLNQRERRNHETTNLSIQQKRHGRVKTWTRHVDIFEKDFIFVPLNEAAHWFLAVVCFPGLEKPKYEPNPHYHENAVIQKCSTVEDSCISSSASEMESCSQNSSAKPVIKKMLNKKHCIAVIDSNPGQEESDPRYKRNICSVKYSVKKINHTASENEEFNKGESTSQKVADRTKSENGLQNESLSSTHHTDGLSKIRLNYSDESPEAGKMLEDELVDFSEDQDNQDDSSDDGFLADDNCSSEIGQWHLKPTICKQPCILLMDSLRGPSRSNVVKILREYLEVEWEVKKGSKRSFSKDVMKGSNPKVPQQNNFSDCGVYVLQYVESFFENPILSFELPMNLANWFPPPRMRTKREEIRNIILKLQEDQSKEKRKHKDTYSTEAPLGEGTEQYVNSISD

[5] = molecular target: T5, Sentrin-specific protease 8 (Homo sapiens, UniProt Q96LD8); assay type: functional;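 further: luminescence read-out of SENP8 inhibition, dose-response confirmation following an ultra-high-throughput screen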
T5 sequence (Q96LD8 whole entry): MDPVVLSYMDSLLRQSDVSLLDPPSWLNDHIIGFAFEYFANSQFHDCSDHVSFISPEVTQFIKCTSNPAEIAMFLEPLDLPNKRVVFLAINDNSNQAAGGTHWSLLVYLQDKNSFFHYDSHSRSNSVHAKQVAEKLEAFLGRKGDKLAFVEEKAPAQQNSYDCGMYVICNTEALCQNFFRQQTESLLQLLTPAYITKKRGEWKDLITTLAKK

[6] = molecular target: T6, Trace amine-associated receptor 1 (Homo sapiens, UniProt Q96RJ0); test: Counterscreen for agonists of the human trace amine associated receptor 1 (hTAAR1): Fluorescence-based cell-based high throughput dose response assay to identify hTAAR1 agonist that also desensitize TAAR1 receptor response.; assay type: functional
T6 sequence (Q96RJ0 whole entry): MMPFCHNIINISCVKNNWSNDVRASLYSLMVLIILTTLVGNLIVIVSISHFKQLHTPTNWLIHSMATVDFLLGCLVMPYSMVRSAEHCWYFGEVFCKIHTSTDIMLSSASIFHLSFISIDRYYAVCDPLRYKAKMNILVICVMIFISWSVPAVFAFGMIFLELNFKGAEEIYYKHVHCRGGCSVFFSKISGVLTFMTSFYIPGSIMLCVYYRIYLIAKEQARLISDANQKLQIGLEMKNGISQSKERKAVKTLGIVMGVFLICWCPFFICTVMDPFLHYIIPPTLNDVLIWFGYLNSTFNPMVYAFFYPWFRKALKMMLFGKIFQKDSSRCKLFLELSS

[7] = molecular target: T6, Trace amine-associated receptor 1; test: Fluorescence-based cell-based high throughput dose response assay to identify agonists of the human trace amine associated receptor 1 (TAAR1).; assay type: functional
cells [8] = assay type: functional, cell-based
cells [9] = assay type: functional, cell-based; remark: listed apart in the source
cells [10] = assay type: functional, cell-based; remark: listed apart in the source
cells [11] = assay type: functional, cell-based; remark: listed apart in the source
[12] = molecular target: Induced myeloid leukemia cell differentiation protein Mcl-1 (Homo sapiens, UniProt Q07820); assay type: functional
Chain of Induced myeloid leukemia cell differentiation protein Mcl-1 (Q07820 whole entry): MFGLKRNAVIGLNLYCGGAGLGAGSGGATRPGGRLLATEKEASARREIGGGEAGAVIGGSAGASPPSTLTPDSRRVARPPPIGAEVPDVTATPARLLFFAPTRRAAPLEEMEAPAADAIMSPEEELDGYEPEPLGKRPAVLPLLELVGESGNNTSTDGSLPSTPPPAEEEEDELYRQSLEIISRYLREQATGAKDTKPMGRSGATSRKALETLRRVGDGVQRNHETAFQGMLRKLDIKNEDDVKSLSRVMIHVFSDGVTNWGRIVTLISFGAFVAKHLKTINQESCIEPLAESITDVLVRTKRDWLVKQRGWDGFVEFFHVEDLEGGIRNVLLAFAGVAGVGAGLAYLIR

[13] = cytotoxicity in HEK-293T cells, dose response, cytotoxicity control for BCR NF-kB inhibitor project, luminescence, B-cell screen hits (AID 489021); assay type: functional, cell-based;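 further: HEK-293T cells carrying an NF-kB luciferase reporter; cells exposed to compound for about 14 hours before viability readout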

Q: What does the source list for `O=C(CCN1C(=O)/C(=C\c2ccccc2Cl)SC1=S)Nc1cccnc1`?
A: IC50 (Fatty acid synthase [1]): 7.21 µM (active); IC50 (Fatty acid synthase [2]): 6.84 µM (active)

Q: What does the source list for `Cc1nnc(SC(C(=O)Nc2ccc(Cl)c([N+](=O)[O-])c2)c2ccccc2)nc1O` (configuration not stated)?
A: IC50 (Fatty acid synthase [1]): 17.3 µM (active); IC50 (Fatty acid synthase [2]): 15.9 µM (active)

Q: Which IC50 [3] does the source give for `COCC(C)n1c(C)cc(C(=O)COC(=O)c2n[nH]c3ccccc23)c1C` (configuration not stated) here?
A: 7.13 µM (active)

Q: What about the IC50 (Caspase-3) of the same compound?
A: 16.8 µM (active)

Q: And the IC50 [4]?
A: 24.3 µM (active)

Q: And the IC50 [5]?
A: 42.9 µM (active)

Q: With `O=C(CSC(=S)N1CCCC1)NCCc1ccccc1` as the compound, how does the IC50 [6] read?
A: 1.19 µM (active)

Q: And the EC50 [7]?
A: 1.96 µM (active)

Q: What about the IC50 (cells [8]) of the same compound?
A: > 29.9 µM (inactive)

Q: What about the EC50 (cells [9]) of the same compound?
A: > 29.9 µM (inactive)

Q: Which IC50 (Fatty acid synthase [1]) does the source give for `O=c1oc(-c2ccco2)nc2sc3c(c12)CCCCC3` here?
A: 5.34 µM (active)

Q: What about the IC50 (Fatty acid synthase [2]) of the same compound?
A: 3.45 µM (active)

Q: For `O=C(COC(=O)c1cc([N+](=O)[O-])ccc1NCCO)Nc1ccc2c(c1)OCO2`, which IC50 (Fatty acid synthase [1]) is on record?
A: 2.69 µM (active)

Q: What about the IC50 (Fatty acid synthase [2]) of the same compound?
A: 4.51 µM (active)

Q: Which EC50 (cells [10]) does the source give for `CCOC(=O)c1c(C)[nH]c(C)c1S(=O)(=O)N1c2ccccc2CC1C` (configuration not stated) here?
A: > 350 µM (not active)

Q: And the EC50 (cells [11])?
A: > 350 µM (not active)

Q: Which results are given for `O=C(c1cc(Br)ccc1Cl)N1CCC2(CC1)OCCO2`?
A: EC50 (cells [10]): 67 µM (active); EC50 (cells [11]): > 350 µM (not active)

Q: With `O=S(=O)(Cc1cc(Cl)nc(-c2ccncc2)n1)c1ccccc1` as the compound, how does the IC50 [12] read?
A: 6.12 µM (active)

Q: For `OCCNc1nc(Nc2ccccc2)nc(Nc2ccccc2)n1`, which IC50 [12] is on record?
A: 24.3 µM (not active)

Q: What does the source list for `Cc1nc(Cl)sc1C(=O)Nc1ccc2ccccc2c1`?
A: IC50 [3]: 7.54 µM (active); IC50 (Caspase-3): 22.7 µM (active); IC50 [4]: 23.9 µM (active); IC50 [5]: 29.8 µM (active)

Q: Which IC50 [13] does the source give for `Cc1ccc(C(=O)CSc2nnc(COc3cc(C)cc(C)c3)o2)cc1` here?
A: > 80 µM (inactive)
